Common to all, as to format: cell-based
Experiment [1] deals with IGF1 secretion by human fallopian epithelium. In words: hIGF1 immunoblot of fallopian epithelium conditioned medium. As to the method: (§1) Human fallopian tissue was obtained from routine hysterectomies from women in their reproductive years (ages range from 26 to 50 years old) and who had not undergone exogenous hormonal treatment for at least three months prior to surgery. Informed consent was obtained from each patient and approval granted by the ethics committee of the Northwestern University. Human fallopian tissue was kept in the DMEM/F12 medium with 10% FBS on ice and processed within 24 hours. The tissue was washed with warm PBS solution two times before being transferred into warm dissection medium (Liebowitz 15 with 0.5% P/S and 10% FBS). After cleaning connective tissue from outside of the fallopian tissue, the fallopian tube was cut open and the inner epithelia layer was mechanically dissected using forceps. […] Tissue was cultured on 0.4 μm pore Millicell inserts (PICM03050, EMD Millipore Co, Billerica, Mass., USA) twelve-well plates with culture medium in a 37° C. and 5% CO2 incubator. Estrogen (E2) and progesterone (P4) used in tissue culture experiments were purchased from Sigma (St. Louis, Mo.).
(§2) Cultured human fallopian epithelia layers were homogenized with a minipestle in ice-cold lysis buffer (20 mM Tris-HCl, pH 8.0, 137 mM NaCl, 10% glycerol, 1% NP-40, 2 mM EDTA). Lysate normalized for protein content was loaded into NuPAGE 4-12% gradient Bis-Tris precast SDS-PAGE gels and transferred to a nitrocellulose membrane (Life Technologies, Carlsbad, Calif., USA). Blots were probed by polyclonal anti-OVGP1 antibody (LsBio, Cambridge, Mass.) overnight in 4° C. followed by anti-rabbit secondary antibody conjugated to horseradish peroxidase (Zymed, San Francisco, Calif.). Proteins were detected by ECL primer (GE HealthCare Life Sciences, Pittsburgh, Pa.) and exposed to X-ray film (Kodak, Rochester, N.Y.). The same blot was stripped using stripping buffer (Thermo Scientific, Hanover Park, Ill.) and re-probed with monoclonal anti-α-tubulin (Sigma, St. Louis, Mo.) followed by an anti-mouse secondary antibody conjugated to horseradish peroxidase. NIH ImageJ Imaging Software was used to quantify the density of western blot bands. Conditioned medium from fallopian epithelia cultures was collected and probed via western blot analysis using a polyclonal anti-hIGF1 antibody (abcam, Cambridge, Mass.). The blot was detected by the same method described above.
Fallopian epithelia layers cultured on […] inserts were pre-cultured in the alpha-MEM with 0.3% BSA, ITS and 1% P/S medium for two days. Cell culture medium was collected for the glucose ELISA assay (abcam, Cambridge, Mass.). Medium was diluted 1:500 and ELISA was performed according to the protocol provided by the kit. […]
In general terms: Immunoblotting shows a protein as a band on a membrane.

Experiment [2] relates to OVGP1 expression in human fallopian epithelium. In words: OVGP1 immunoblot of cultured fallopian epithelium lysate. As to the method: as §1, §2
Experiment [3] deals with primary human endocervical cells. Kind of experiment: Immunohistochemistry of 3D endocervical cultures (PR, ER, Ki67). The following applies: day-14 (E2), day-28 (E2+P4). As to the method: To represent a 28-day human menstrual cycle in vitro, a stepwise hormone regimen was added to the cells. For the first 7 days, cells were incubated with 0.1 nM E2, followed by 1 nM E2 for the next 7 days (FIG. 45). Then cells were treated for 1 nM E2 and 10 nM P4 for an additional 7 days, followed by 0.1 nM E2 and 50 nM P4 for 5 days. Then media without hormones were added for the final 2 days for a total culture period of 28 days. Media was collected every 48 h and stored at −20° C. For PR antagonist studies, cells were treated with 100 nM RU486 (Sigma, MO) which was added on day-21. To visualize the cells on scaffold, cells were infected with the adenovirus containing pAD-eGFP-RLC (Cell Imaging Core, Northwestern University) (Khuon et al. Journal of cell science 123:431-440.; herein incorporated by reference in its entirety) by adding 2 μl of amplified virus to 3.5 ml of media per […] for 24 h.
Scaffolds were washed twice in PBS, covered with histogel (Fisher Scientific, MA) and fixed in 4% paraformaldehyde for 5 h. Processing and hematoxylin and eosin (H&E) staining was performed at the Northwestern University Center for Reproductive Sciences Histology Core (Chicago, Ill.). […] HRP activity was detected using 3,3′-Diaminobenzidine (DAB) in 1:50 dilution (Dako, CA) as substrate for 30-60 sec and then counterstained with hematoxylin. […]

The mark [4] stands for this setting: 28 days stepwise E2 and P4 treatment, P4 in the presence of E2.

With `C[C@]12CC[C@@H]3c4ccc(O)cc4CC[C@H]3[C@@H]1CC[C@@H]2O` [E2, estradiol], the IGF1 secretion entry in experiment [1] (7 days culture, 1 nM E2, P4 added to E2) is given as “induced”; in experiment [1] (setting [4]), “stimulated”. In addition, the “OVGP1 expression in the fallopian lysate” value in experiment [2] (7 days culture, P4 added to E2) is on record as “induction”. Further, the OVGP1 expression entry in experiment [2] (setting [4]) was “stimulated”. For the same molecule, in experiment [3], the “Ki67 staining compared to control” value is “increased staining”.

Values taken from patent publication US11542475B2, “3D microphysiologic system” (Northwestern University, priority 2014, dated 2023).
